Assay results as given in patent publication US20100297079A1, “COMPOUNDS, COMPOSITIONS AND METHODS FOR TREATING VIRAL INFECTION” (Chimerix, Inc., priority 2009, published 2010).
Like-named read-outs stand apart in the source and are kept apart here.

What was measured:
Type in all cases: cell-based
HCV = assay: Anti-HCV activity (HCV replicon assay); settings: Hepatitis C virus
Experimental: (§1) Antiviral activity against HCV is determined using the stably-expressing HCV replicon cell line, AVA5 (sub-genomic (CON1), genotype 1b) (Okuse, et al., Antivir. Res. 65:23 (2005); Korba, et al., Antivir. Res. 77:56 (2008); Blight, et al., Science 290:1972 (2000)). Reductions in intracellular HCV RNA are determined with respect to a cellular control (B-actin) by blot hybridization. Cytotoxicity is assessed by neutral red dye uptake in parallel plates.
Efficacy and cell cytotoxicity values (EC50, EC90 and CC50) are calculated by linear regression analysis (MS EXCEL®, QuattroPro®) (Korba & Gerin, Antivir. Res. 19:55 (1992); Okuse, et al., Antivir. Res. 65:23 (2005)). The therapeutic index is calculated as CC50/EC50. Recombinant human interferon 2b (PBL laboratories, Inc.) is included as a positive control. Activity is subsequently tested against additional genotypes (e.g., genotype 1a) using the format described for the primary assay. In addition to antiviral assays described herein, several other types of anti-HCV activities can also be assessed using methods known to one of ordinary skill in the art. […]

[1] = Cytotoxicity (CC50) in parallel plates of the anti-HCV assay; settings: human
Experimental: as §1
Efficacy and cell cytotoxicity values (EC50, EC90 and CC50) are calculated by linear regression analysis (MS EXCEL®, QuattroPro®) (Korba & Gerin, Antivir. Res. 19:55 (1992); Okuse, et al., Antivir. Res. 65:23 (2005)). The therapeutic index is calculated as CC50/EC50. Recombinant human interferon 2b (PBL laboratories, Inc.) is included as a positive control. Activity is subsequently tested against additional genotypes (e.g., genotype 1a) using the format described for the primary assay. In addition to antiviral assays described herein, several other types of anti-HCV activities can also be assessed using methods known to one of ordinary skill in the art.

MT4 Cell Toxicity Assay = settings: human
Experimental: Cells used: MT4 cells were obtained from NIH AIDS research & Reference Reagent Program. Cells were used up to passage 30.
Toxicity assay using MTS: 5,000 MT4 cells were plated per well in a 96-well plate. Compounds were diluted in DMSO and further diluted with medium before adding to the plated cells. Plates were then incubated in a CO2 incubator at 37° C. for 6 days.
Cell viability was estimated using MTS, a tetrazolium compound [3-(4,5-dimethylthiazol-2-yl)-5-(3-carboxymethoxyphenyl)-2-(4-sulfophenyl)-2H-tetrazolium], which is converted to a soluble formazan by mitochondrial dehydrogenases in the presence of an electron coupling reagent (phenazine methosulfate; PMS). The formazan product has an absorption maximum around 490 nm. Forty microliters of MTS reagent [MTS (2 mg/ml) and PMS (0.92 mg/ml) mixed at a ratio of 20:1 just before use] was added to each well and plates incubated for 4 hrs at 37° C. Absorbance was read at 490 nm using a Synergy 2 plate reader (BioTek). Data analysis was carried out using the BioTek Gen5 software using a 4-parameter curve fitting function to determine CC50 values.

HepG2 cells = assay: Mitochondrial Biogenesis Assay; settings: 7 days, ratio of Complex IV to Frataxin
Experimental: Cells used: HepG2 cells were obtained from ATCC. Cells are used up to 25 passages from the ATCC freeze.
Mitochondria Biogenesis Assay using HepG2 cells: 150,000 HepG2 cells were plated per well in a 6-well plate. Compounds were diluted in DMSO and further diluted in the plated cells so as to give a top concentration of 50 μM. Five four-fold dilutions were tested in this assay format. Plates were then incubated in a CO2 incubator at 37° C. for 7 days. Medium containing fresh compound was changed on day 3 and 6 of the assay. Cells were harvested on day 7 of the assay.
On day 7, cells were rinsed with 1×DPBS three times and scraped off into 1×DPBS and held on ice. Whole cell protein estimation was determined to make sure that the cells are suspended at a protein concentration of 3-5 mg/ml.
Cells were lysed on ice by addition of 1:10 volume of diluted detergent (MitoSciences) so as to have a final detergent concentration of 2%. Cells were held on ice for 1 hr and then centrifuged at ˜20K×g for 20 min. The supernatant fraction was used for determining solubilized Frataxin and Complex IV using an ELISA kit from MitoSciences. The ratio of Complex IV to Frataxin was used to determine mitochondrial toxicity. DMSO controls were run to determine ratio of Frataxin and Complex IV in control cells. ddC was run as a positive control in the assay.

[2] = anti-HCV activity, read-out: EC50
[3] = AVA5 HCV replicon cells (sub-genomic CON1, genotype 1b)
[4] = MT4 cells, 6 days, MTS, read-out: MT-4 (TC50)

| SMILES | EC50 (HCV; [2]) | CC50 [1, 3] | CC50 at 6 days (MT4 Cell Toxicity Assay; MT-4 (TC50) (μM)) | Mitotoxicity (μM) (HepG2 cells) | EC50 (HCV) | CC50 [1] | CC50 at 6 days (MT4 Cell Toxicity Assay; [4]) |
| --- | --- | --- | --- | --- | --- | --- | --- |
| CC(C)=CCNc1ncnc2c1c(/C(N)=N\O)cn2[C@@H]1O[C@H](CO)[C@@H](O)[C@H]1O [Compound a] | < 100 nM | < 1000 nM | > 100 µM | * (up to 20 μM) | – | – | – |
| CCCCCCCCCCCCCCCCOCCCOP(=O)(O)OC[C@H]1O[C@@H](n2cc(C#N)c3c(N)ncnc32)[C@H](O)[C@@H]1O [Compound b] | < 100 nM | < 1000 nM | < 1 µM | * (up to 20 μM) | – | – | – |
| C[C@@]1(F)[C@H](O)[C@@H](CO)O[C@H]1n1cc(Br)c2c(N)ncnc21 [Compound c] | – | 20000 to 100000 nM | – | – | – | – | – |
| C[C@]1(O)C(n2cc(C(N)=S)c3c(N)ncnc32)O[C@H](CO)[C@H]1O (stereo partly drawn) [Compound d] | 1000 to 5000 nM | – | 1 to 20 µM | * (up to 20 μM) | – | – | – |
| CNC(=O)c1csc(-c2cn([C@@H]3O[C@H](CO)[C@@H](O)[C@@]3(C)O)c3ncnc(N)c23)c1 [Compound e] | – | 20000 to 100000 nM | – | – | – | – | – |
| C[C@@]1(F)[C@H](O)[C@@H](CO)O[C@H]1n1cc(-c2cccs2)c2c(N)ncnc21 [Compound f] | > 5000 nM | – | – | * (up to 20 μM) | – | – | – |
| COC(=O)[C@H](C)NP(=O)(OC[C@H]1O[C@@H](n2cc(C(N)=S)c3c(N)ncnc32)[C@H](O)[C@@H]1O)Oc1ccccc1 (stereo partly drawn) [Compound g] | – | – | – | – | < 100 nM | < 1000 nM | < 1 µM |
| CCCCCCCCCCCCCCCCOCCCOP(=O)(O)OC[C@H]1O[C@@H](n2cc(C(N)=S)c3c(N)ncnc32)[C@H](O)[C@@H]1O [Compound h] | < 100 nM | < 1000 nM | < 1 µM | – | – | – | – |
| C[C@@]1(O)[C@H](O)[C@@H](CO)O[C@H]1n1cc(C#N)c2c(N)ncnc21 [Compound j] | 100 to 1000 nM | – | 20 to 100 µM | ** (20-50 μM) | – | – | – |
| COC(=O)[C@H](C)NP(=O)(OC[C@H]1O[C@@H](n2cc(C(N)=S)c3c(N)ncnc32)[C@](C)(O)[C@@H]1O)Oc1ccccc1 (stereo partly drawn) [Compound k] | – | – | – | * (up to 20 μM) | 100 to 1000 nM | 1000 to 20000 nM | 20 to 100 µM |
| [N-]=[N+]=N[C@H]1C(O)C(CO)OC1n1cc(C(N)=S)c2c(N)ncnc21 (stereo partly drawn) [Compound l] | 100 to 1000 nM | 1000 to 20000 nM | > 100 µM | *** (50-80 μM) | – | – | – |
| COC(=N)c1cn(CC2(F)COC(CO)C2O)c2ncnc(N)c12 (stereo not drawn) [Compound m] | > 5000 nM | – | 20 to 100 µM | – | – | – | – |
| CC(C)CCNc1ncnc2c1c(C(=N)NO)cn2[C@@H]1O[C@H](CO)[C@@H](O)[C@H]1O [Compound n] | 1000 to 5000 nM | 1000 to 20000 nM | > 100 µM | – | – | – | – |
| CNC(=O)c1csc(-c2cn([C@@H]3O[C@H](CO)[C@@H](O)[C@H]3O)c3ncnc(N)c23)c1 [Compound o] | 1000 to 5000 nM | 20000 to 100000 nM | – | – | – | – | – |
| NC(=S)c1cn(C2O[C@H](CO)[C@@H](O)[C@H]2O)c2ncnc(N)c12 (stereo partly drawn) [Compound p] | – | – | – | * (up to 20 μM) | < 100 nM | < 1000 nM | < 1 µM |
| CCCCCCCCCCCCCCCCOCCCOP1(=O)OC[C@H]2O[C@@H](n3cc(C(N)=S)c4c(N)ncnc43)[C@H](O)[C@@H]2O1 (stereo partly drawn) [Compound q] | < 100 nM | 1000 to 20000 nM | < 1 µM | – | – | – | – |
| Nc1ncnc2c1c(Br)cn2[C@@H]1O[C@H](CO)[C@@H](O)[C@H]1O [Compound r] | 1000 to 5000 nM | – | 1 to 20 µM | – | – | – | – |
